Values of other authors in PMC6522624, “Comparison of desferrioxamine and NODAGA for the gallium-68 labeling of exendin-4” (EJNMMI Radiopharmacy and Chemistry, 2019).

What was measured:
[1] = gallium chelation; ref Šimeček et al. [2011]; Evers et al. [1989]
Excerpt: However, their thermodynamic complex formation stability constant (log K) have been reported to be very similar, with 28.65 for DFO and 29.63 for NOTA (Šimeček et al. [2011]; Evers et al. [1989]).

[2] = in vivo
Excerpt: Insulinomas generally express highly and specifically the glucagon-like peptide-1 receptor (GLP-1R) as they are of β-cell origin (Reubi and Waser [2003]). GLP-1R is a G-protein coupled receptor of the class B receptor family (Zhang et al. [2017]). […] Dipeptidyl peptidase-4 (DPP4) is responsible for the cleavage of the peptide (Baggio and Drucker [2007]).

Molecule | thermodynamic complex formation stability constant (log K) [1] | biological half-life [2]
O=C(O)CN1CCN(CC(=O)O)CCN(CC(=O)O)CC1 [NOTA] | 29.63 | 
GLP-1: endogenous peptide ligand of GLP-1R |  | about 2 min
CC(=O)N(O)CCCCCNC(=O)CCC(=O)N(O)CCCCCNC(=O)CCC(=O)N(O)CCCCCN [DFO, N′-[5-(acetyl-hydroxy-amino)pentyl]-N-[5-[3-(5-aminopentyl-hydroxy-carbamoyl)propanoylamino]pentyl]-N-hydroxy-butane diamide] | 28.65 | 
